Test results as given in patent publication US20190209569A1, “PHARMACEUTICAL COMPOSITION FOR SUPPRESSING APPETITE, CONTAINING N2-(M-TRIFLUOROBENZYL), N6-(P-NITROBENZYL)PURINE (TNP) OR PHARMACEUTICALLY ACCEPTABLE SALT THEREOF AS ACTIVE INGREDIENT” (priority 2016, published 2019).

How the values were obtained:
food intake = test: Effect of single administration of TNP in the third ventricle on food intake; assay type: in vivo, mouse
Method: (§1) Adult male C57BL/6 mice were purchased from Orient Bio (Gyeonggi-do, Korea) and the mice were allowed to take the standard diet (Agri Purina, Seoul, Korea) freely. The mice were raised in the controlled condition (temperature: 22±1° C., light/dark cycle: 12/12 hr (light condition: 8:00 am˜8:00 pm)). A cannula was intubated in the third ventricle of the mouse for the administration of TNP. For the cannulation, the mouse was anesthetized with a mixture of Zoletil and Rumpun (2:1 v/v, 10 μl/g weight) and then a permanent 26-gauge stainless steel cannula was inserted in the third ventricle of the mouse. The insertion position of the cannula was 1.8 mm back from the bregma and 5.0 mm down from the sagittal sinus. The exact cannulation site was confirmed by the positive dipsogenic response after the administration of angiotensin II (50 ng). Only those mice that were confirmed to have cannulae in the correct location were used for data analysis. After the 7 day recovery period, the mice were massaged every day for 1 week in order to minimize the stress response to the experiment.
The mice cannulated in Example 1 were fasted for 18 hours and then administered at different concentrations of TNP (0.4 pg, 0.04 ng, and 0.4 ng; Calbiochem) in the early light phase (9:00 am˜11:00 am). Before the administration, TNP was dissolved in 0.9% saline. 2 μl of the TNP dissolved in saline at different concentrations (0.4 pg, 0.04 ng, and 0.4 ng) was administered via the cannula into the third ventricle. For the control, the same amount of saline was administered.
5 mice treated with saline, 5 mice treated with 0.4 pg of TNP, 5 mice treated with 0.04 ng of TNP, and 4 mice treated with 0.4 ng of TNP were fasted for 18 hours as described in Example 2. TNP was administered once into the third ventricle of the mice. Then, the mice were allowed to take food freely and the food intake was measured for 24 hours.
All experimental values of the present invention were expressed as mean±standard error ([…]). Statistical analysis was performed by Student's t-test. […]

weight gaining = test: Effect of single administration of TNP in the third ventricle on weight control; assay type: in vivo, mouse; conditions: mice fasted for 18 hours; single administration of 0.4 pg, 0.04 ng or 0.4 ng into the third ventricle; observed for 24 hours; FIG. 2
Method: as §1
The mice cannulated in Example 1 were fasted for 18 hours and then administered at different concentrations of TNP (0.4 pg, 0.04 ng, and 0.4 ng; Calbiochem) in the early light phase (9:00 am˜11:00 am). Before the administration, TNP was dissolved in 0.9% saline. […]

[1] = single administration into the third ventricle, 0.4 pg, 0.04 ng, 0.4 ng, vs saline

## O=[N+]([O-])c1ccc(CNc2nc(NCc3cccc(C(F)(F)F)c3)nc3[nH]cnc23)cc1 [TNP, N2-(m-Trifluorobenzyl), N6-(p-nitrobenzyl)purine]
Food intake; male C57BL/6 mice fasted for 18 hours, single administration of 0.4 pg, 0.04 ng or 0.4 ng into the third ventricle, food intake measured for 24 hours, FIG. 1
  food intake compared to the mice administered with saline: significantly reduced
Food intake; [1]
  time after administration at which the food intake reduction effect was still maintained: ≥ 24 h
  time after administration from which the food intake reduction effect was significant: 2 h
Weight gaining
  weight gaining compared to the control mice treated with saline: significantly suppressed
